Results on eight compounds are retold here after ChEMBL document CHEMBL1201862, “PubChem BioAssay data set” (2004).

Among the test systems are HT-29; HCT-15; NCI-H460; SK-MEL-2; NCI/ADR-RES; CCRF-CEM; BT-549; A498; ACHN; K562; RPMI-8226; EKVX; OVCAR-4; SW-620; OVCAR-5; HOP-92; TK-10; U-251; UO-31.
Holding throughout (test): DTP human tumour cell line panel, 48 h

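Step 1: Grow cells in 96-well plates. Step 2: Expose to compound for 48 hours at 5 concentrations. Step 3: Interpolate endpoints linearly; if unreached, use highest concentration. GI50 marks 50% less growth.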 Activity calls are given as the source filed them. Cut-off read from the data, not from the text of the source: active = GI50 up to about 1.1 µM and inactive = higher.

As usually defined, the GI50 is the concentration that inhibits growth by half. As to `CCCC(=O)Nc1cn(COC)c(C(=O)N2C[C@@H]3C[C@]34C2=CC(=O)c2[nH]cc(C)c24)n1`, the GI50 was 7.76 µM (inactive) in the assay with HT-29; 13.7 µM in the assay on HCT-15; 4.79 µM (inactive) in the assay with NCI-H460; 8.47 µM (inactive) in the assay on SK-MEL-2; 7.87 µM (inactive) with NCI/ADR-RES; 1.27 µM (inactive) in the assay with CCRF-CEM. Besides, the GI50 in the assay with BT-549 was 7.74 µM (inactive); with A498, 9.48 µM (inactive); in the assay with ACHN, 3.26 µM (inactive); in the assay on K562 it was 4.35 µM (inactive); with RPMI-8226, 10.9 µM (inactive); in the assay with EKVX, > 5 µM (inactive). The GI50 is 7.82 µM (inactive) in the assay with OVCAR-4; 5.58 µM (inactive) with SW-620; 28.7 µM (inactive) with OVCAR-5; 9.31 µM (inactive) with HOP-92; 7.96 µM (inactive) in the assay on TK-10; 12.9 µM (inactive) in the assay on U-251. The GI50 in the assay with UO-31 is 12.3 µM (inactive).

Regarding `COC(=O)c1ccc(/N=N/N(C)COc2ccc(C#N)cc2)cc1`, the GI50 in the assay with HT-29 is > 100 µM (inactive); in the assay with HCT-15 it was 22.4 µM; in the assay on NCI-H460, 18.2 µM (inactive); in the assay with SK-MEL-2, > 100 µM (inactive); with NCI/ADR-RES it was 67 µM (inactive); in the assay with CCRF-CEM, 20.3 µM (inactive). Also, the GI50 was > 100 µM (inactive) in the assay with BT-549; > 100 µM (inactive) in the assay with A498; 21.2 µM (inactive) in the assay on ACHN; 35.2 µM (inactive) in the assay with K562; > 100 µM (inactive) with RPMI-8226; > 100 µM (inactive) with EKVX. For the same compound, the GI50 is > 100 µM (inactive) with OVCAR-4; 53.5 µM (inactive) in the assay on SW-620; 61 µM (inactive) in the assay with OVCAR-5; 34.4 µM (inactive) with HOP-92; > 100 µM (inactive) in the assay with TK-10; 98.6 µM (inactive) in the assay on U-251. Moreover, in the assay on UO-31, the GI50 is 77.3 µM (inactive).

On to `CO[C@H]1O[C@@H]2CO[C@@H](c3ccccc3)O[C@H]2[C@@H]2CC=CCC[C@]12O`, for which the GI50 was 40 µM (inactive) with HT-29; 39.6 µM with HCT-15; 35.7 µM (inactive) in the assay with NCI-H460; 65.5 µM (inactive) with SK-MEL-2; 44.4 µM (inactive) in the assay with NCI/ADR-RES; 31 µM (inactive) in the assay on CCRF-CEM. Also, the GI50 is 24.6 µM (inactive) in the assay with BT-549; 32.1 µM (inactive) with A498; 76.4 µM (inactive) in the assay on ACHN; 33.9 µM (inactive) in the assay on K562; 23.7 µM (inactive) in the assay with RPMI-8226; 36.8 µM (inactive) in the assay on EKVX. Further, the GI50 in the assay with OVCAR-4 is 57.3 µM (inactive); in the assay on SW-620, 54.1 µM (inactive); in the assay with OVCAR-5 it was > 100 µM (inactive); in the assay with HOP-92, 49.8 µM (inactive); in the assay on TK-10, 93.5 µM (inactive); in the assay with U-251, 60.3 µM (inactive). For the same compound, the GI50 with UO-31 was 48.2 µM (inactive).

`C=C1C(=O)O[C@@H]2C[C@@H](C)[C@@H]3C=CC(=O)[C@@]3(C)[C@@H](OC(=O)CCCC(=O)O[C@H]3[C@@H]4C(=C)C(=O)O[C@@H]4C[C@@H](C)[C@@H]4C=CC(=O)[C@]43C)[C@H]12`: the GI50 is 0.0352 µM (active) in the assay on HT-29; 0.0335 µM with HCT-15; 0.27 µM (active) in the assay on NCI-H460; 0.152 µM (active) with SK-MEL-2; 0.396 µM (active) with NCI/ADR-RES; < 0.01 µM (active) in the assay with CCRF-CEM. The GI50 in the assay with BT-549 is 0.0252 µM (active); in the assay with A498 it was 0.181 µM (active); with ACHN, 0.0266 µM (active); in the assay with K562, < 0.01 µM (active); in the assay on RPMI-8226 it was 0.0107 µM (active); in the assay on EKVX it was 0.0875 µM (active). Moreover, the GI50 with OVCAR-4 is 0.0455 µM (active); with SW-620, 0.0144 µM (active); in the assay with OVCAR-5 it was 0.139 µM (active); with HOP-92, 0.034 µM (active); in the assay with TK-10, 0.0682 µM (active); in the assay on U-251, 0.101 µM (active). Moreover, the concentration for 50% growth inhibition (GI50) with UO-31 is 0.135 µM (active).

As to `COc1ccc(N2C(=O)C3c4[nH]c5ccc(C)cc5c4C4CCC(C(C)C)CC4C3C2=O)cc1` (stereo not given), the GI50 in the assay with HT-29 was > 100 µM (inactive); in the assay with HCT-15 it was more than 100 µM; in the assay on NCI-H460, > 100 µM (inactive); in the assay on SK-MEL-2 it was > 100 µM (inactive); in the assay on NCI/ADR-RES, > 100 µM (inactive); in the assay on CCRF-CEM, 0.995 µM (active). Further, the GI50 in the assay with BT-549, in the assay with A498, with ACHN, with K562, in the assay on RPMI-8226 and in the assay with EKVX was > 100 µM (inactive) in each case. Further, the GI50 in the assay on OVCAR-4 is > 100 µM (inactive); with SW-620, > 100 µM (inactive); in the assay with OVCAR-5 it was > 100 µM (inactive); with HOP-92, > 100 µM (inactive); in the assay on TK-10 it was > 100 µM (inactive); with U-251 it was 47.6 µM (inactive). Besides, the GI50 with UO-31 was > 100 µM (inactive).

In the case of `C=CCCCCCCCCCOC1C=CC(OC(C)=O)C(COC(C)=O)O1` (stereo not given), the GI50 is 21.4 µM (inactive) in the assay on HT-29; 36.6 µM with HCT-15; 38.7 µM (inactive) with NCI-H460; 38.3 µM (inactive) with SK-MEL-2; 41.4 µM (inactive) with NCI/ADR-RES; 39.1 µM (inactive) in the assay on CCRF-CEM. Moreover, the GI50 in the assay with BT-549 was 66.4 µM (inactive); in the assay with A498, > 100 µM (inactive); in the assay on ACHN, 65.5 µM (inactive); in the assay with K562 it was 1.99 µM (inactive); in the assay with RPMI-8226, 13.2 µM (inactive); in the assay with EKVX, 47.6 µM (inactive). Moreover, the GI50 with OVCAR-4 was 45.8 µM (inactive); in the assay on SW-620, 57 µM (inactive); with OVCAR-5, > 100 µM (inactive); in the assay with HOP-92, 58.2 µM (inactive); with TK-10, 44.3 µM (inactive); in the assay with U-251, 39.6 µM (inactive). For the same compound, the GI50 in the assay with UO-31 is 44.8 µM (inactive).

As for `O=C1CCSc2nc(-c3ccc4c(c3)OCO4)nn21`, the GI50 in the assay with HT-29 was > 10 µM (inactive); with HCT-15, more than 10 µM; with NCI-H460, > 10 µM (inactive); with SK-MEL-2, > 10 µM (inactive); in the assay on NCI/ADR-RES, > 10 µM (inactive); with CCRF-CEM, > 10 µM (inactive). The GI50 in the assay on BT-549, with A498, in the assay on ACHN, with K562, in the assay on RPMI-8226 and in the assay with EKVX was > 10 µM (inactive) in each case. For the same compound, the GI50 with OVCAR-4, in the assay on SW-620, with OVCAR-5, in the assay on HOP-92, with TK-10 and in the assay with U-251 was > 10 µM (inactive) in each case.

Consider `O=[N+]([O-])c1ccc2c3c1[C@H]1O[C@H]1c1cccc(c1-3)[C@@H]1O[C@H]21`, for which the GI50 was 2.01 µM (inactive) with HT-29; 1.71 µM in the assay on HCT-15; 2.52 µM (inactive) in the assay on SK-MEL-2; 2.41 µM (inactive) in the assay on NCI/ADR-RES; 1.44 µM (inactive) in the assay with CCRF-CEM; 1.99 µM (inactive) with BT-549. In addition, the GI50 in the assay with A498 was 2.31 µM (inactive); in the assay on ACHN it was 2.22 µM (inactive); with K562, 0.526 µM (active); in the assay with RPMI-8226 it was 1.23 µM (inactive); in the assay with EKVX it was 2.03 µM (inactive); with OVCAR-4 it was 2.12 µM (inactive). Also, the GI50 with SW-620 is 0.951 µM (active); in the assay with OVCAR-5, 2.37 µM (inactive); in the assay on HOP-92, 2.18 µM (inactive); in the assay with TK-10, 2.96 µM (inactive); with U-251, 1.8 µM (inactive); in the assay with UO-31, 2 µM (inactive).
